Target: T1, recombinant human G9a protein (Homo sapiens, UniProt Q96KQ7)
T1 construct: purchased BPS Bioscience Inc. #51001
T1 sequence (Q96KQ7 785-1210 limits assumed): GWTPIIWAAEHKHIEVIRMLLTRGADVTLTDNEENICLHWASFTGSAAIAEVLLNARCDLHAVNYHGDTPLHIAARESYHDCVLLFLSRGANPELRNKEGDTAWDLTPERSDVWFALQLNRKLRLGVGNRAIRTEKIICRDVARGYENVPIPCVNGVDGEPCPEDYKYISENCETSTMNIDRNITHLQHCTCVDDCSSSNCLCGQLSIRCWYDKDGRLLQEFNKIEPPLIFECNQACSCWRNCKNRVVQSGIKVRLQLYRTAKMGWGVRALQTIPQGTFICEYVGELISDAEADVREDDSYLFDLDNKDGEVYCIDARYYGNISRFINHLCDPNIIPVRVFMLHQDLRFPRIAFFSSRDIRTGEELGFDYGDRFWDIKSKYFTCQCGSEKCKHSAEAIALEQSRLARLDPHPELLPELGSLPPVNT
Assay: G9a inhibitory activity test (ALPHA)
Format: biochemical
Details: biotinylated histone H3 peptide (1-21), SAM, read-out: Inhibitory activity (G9a IC50 value)
Protocol: The G9a inhibitory activity of each compound was evaluated by measuring the enzymatic activity of G9a by amplified luminescence proximity homogeneous assay (ALPHA). First, 7.5 μL of a dilution of recombinant human G9a protein (BPS Bioscience Inc., #51001) diluted to 0.05 to 0.1 nM with a Tris buffer solution (50 mM Tris-HCl [pH 9.0], 50 mM NaCl, 0.01% Tween-20, 1 mM DTT), and 0.5 μL of the test compound were added to each well of a 384-well microplate (AlphaPlate-384 Shallow Well, PerkinElmer, Inc., #6008359), mixed by vortex, and incubated at room temperature for 10 minutes. 500 nM biotinylated histone H3 peptide (1-21) (AnaSpec Inc., #61702) and 150 μM SAM (Sigma-Aldrich Co. LLC, #A7007) were mixed at 1:1 in advance, and 2 μL of the mixture was added to each well, mixed by vortex, and then incubated at room temperature for 1 hour. AlphaLISA anti-H3K9me2 acceptor beads (PerkinElmer, Inc., #AL117C) and AlphaScreen streptavidin donor beads (PerkinElmer, Inc., #6760002B) were each diluted with an epigenetic buffer (PerkinElmer, Inc., AlphaLISA Epigenetics Buffer Kit #AL008C) to a final concentration of […] after addition. These dilutions were added to the reaction solution in the dark and incubated at room temperature for 1 hour in the dark. Then, measurement was performed using the EnSpire Alpha plate reader (PerkinElmer, Inc., Waltham, Mass., USA). The G9a inhibitory activity of the test compound was calculated as a compound concentration necessary for suppressing G9a enzymatic activity by 50% (IC50 value), by determining the percent inhibition of the compound when the value of a control without the addition of the compound was defined as 0% and the value of a control without the addition of the enzyme was defined as 100%.

| Compound | IC50 [nM] |
| --- | --- |
| CCCCC(NC(=O)c1[nH]c2c(c1C)C(=O)CC(C)(C)C2)C(=O)NCc1ccc(CCCO)cc1 (stereo not shown) [Example 1-1, N-[1-[[4-(3-hydroxypropyl)phenyl]methylamino]-1-oxohexan-2-yl]-3,6,6-trimethyl-4-oxo-5,7-dihydro-1H-indole-2-carboxamide] | ≥ 200 |
| CCCCC(NC(=O)c1[nH]c2c(c1C)C(=O)CC(C)(C)C2)C(=O)NCc1ccc(OC)cc1 (stereo not shown) [Example 1-46] | ≥ 200 |
| Cc1c(C(=O)NC(CCC2CC2)C(=O)Nc2ccc(N(C)C)nc2)[nH]c2c1C(=O)CC(C)(C)C2 (stereo not shown) [Example 1-74] | 50 to 200 |
| CCCCC(NC(=O)c1[nH]c2c(c1C)C(=O)CC(C)(C)C2)C(=O)Nc1cccc(CN2CCOCC2)c1 (stereo not shown) [Example 1-99] | ≥ 200 |
| CCCCC(NC(=O)c1[nH]c2c(c1C)C(=O)CC(C)(C)C2)C(=O)Nc1ccccc1SC (stereo not shown) [Example 1-2] | 50 to 200 |
| CCCCC(NC(=O)c1[nH]c2c(c1C)C(=O)CC(C)(C)C2)C(=O)Nc1ccccc1CCC (stereo not shown) [Example 1-19] | ≥ 200 |
| CCCCC(NC(=O)c1[nH]c2c(c1C)C(=O)CC(C)(C)C2)C(=O)Nc1cccc2ncccc12 (stereo not shown) [Example 1-14] | ≥ 200 |
| CCCCC(NC(=O)c1[nH]c2c(c1C)C(=O)CC(C)(C)C2)C(=O)Nc1ccc(CCN2CCCCC2)cc1 (stereo not shown) [Example 1-4] | < 50 |
| CCCCC(NC(=O)c1[nH]c2c(c1C)C(=O)CC(C)(C)C2)C(=O)NCc1ccc(N2CCN(C)CC2)cc1 (stereo not shown) [Example 1-54] | ≥ 200 |
| CCCCC(NC(=O)c1[nH]c2c(c1C)C(=O)CC(C)(C)C2)C(=O)NC1CCCCC1 (stereo not shown) [Example 1-24] | ≥ 200 |
| Cc1ccc2c(c1)N(C(=O)C(CCC1CC1)NC(=O)c1[nH]c3c(c1C)C(=O)CC(C)(C)C3)CC2 (stereo not shown) [Example 1-78] | ≥ 200 |
| CCCCC(NC(=O)c1[nH]c2c(c1C)C(=O)CC(C)(C)C2)C(=O)Nc1ccc(CN2CCC(F)(F)CC2)cc1 (stereo not shown) [Example 1-7] | ≥ 200 |
| O=C(NC(CCC1CC1)C(=O)Nc1ccc(OC2COC2)nc1)c1ccc(Nc2ccncc2)cc1 (stereo not shown) [Example 1-88] | < 50 |

Same assay, conditions: read-out: Inhibitory activity (G9a IC50)

| Compound | IC50 [nM] |
| --- | --- |
| CCc1cc(C)ncc1NC(=O)C(CCC1CC1)NC(=O)c1[nH]c2c(c1C)C(=O)CC(C)(C)C2 (stereo not shown) [Example 6-1, N-[4-cyclopropyl-1-[(4-ethyl-6-methylpyridin-3-yl)amino]-1-oxobutan-2-yl]-3,6,6-trimethyl-4-oxo-5,7-dihydro-1H-indole-2-carboxamide] | < 50 |
| COc1ccc(NC(=O)C(CCC2CC2)NC(=O)c2ccc(Nc3ccncc3)c(C)c2)cn1 (stereo not shown) [Example 6-57] | < 50 |
| CCCC[C@H](NC(=O)c1[nH]c2c(c1C)C(=O)CC(C)(C)C2)c1nc2ccc(OCCN3CCCCC3)cc2[nH]1 [Example 37-1, (S)-3,6,6-trimethyl-4-oxo-N-(1-(6-(2-(piperidin-1-yl)ethoxy)-1H-benzo[d]imidazol-2-yl)pentyl)-4,5,6,7-tetrahydro-1H-indole-2-carboxamide] | ≥ 200 |
| CCCC[C@@H](NC(=O)c1[nH]c2c(c1C)C(=O)CC(C)(C)C2)C(=O)N[C@H](C)c1ccccc1 [Example 2-4] | ≥ 200 |
| COc1ccc(NC(=O)C(CCC2CC2)NC(=O)c2ccc(-n3ccc4cnccc43)cc2)cn1 (stereo not shown) [Example 6-58] | 50 to 200 |
| CCCCC(NC(=O)c1[nH]c2c(c1C)C(=O)CC(C)(C)C2)C(=O)Nc1ccc(N2CCNCC2)nc1 (stereo not shown) [Example 26-5] | 50 to 200 |
| CCCCC(NC(=O)c1[nH]c2c(c1C)C(=O)CC(C)(C)C2)C(=O)Nc1ccccc1C(F)F (stereo not shown) [Example 5-1, N-[1-[2-(difluoromethyl)anilino]-1-oxohexan-2-yl]-3,6,6-trimethyl-4-oxo-5,7-dihydro-1H-indole-2-carboxamide] | ≥ 200 |
| Cc1c(C(=O)NC(CCC2CC2)C(=O)Nc2ccc(CCN(C)C)cc2)[nH]c2c1C(=O)CC(C)(C)C2 (stereo not shown) [Example 1-139] | < 50 |
| CCCCC(NC(=O)c1[nH]c2c(c1C)C(=O)CC(C)(C)C2)C(=O)NCc1ccc(CN2CCC2)cc1 (stereo not shown) [Example 18-14] | < 50 |
| Cc1c(C(=O)NC(CCC2CC2)C(=O)N2CCc3ccc(CN4CCCCC4)cc32)[nH]c2c1C(=O)CC(C)(C)C2 (stereo not shown) [Example 1-146] | ≥ 200 |
| CCCCC(NC(=O)c1[nH]c2c(c1C)C(=O)CC(C)(C)C2)C(=O)N[C@@H]1CCc2ccccc21 (stereo partly shown) [Example 1-111] | 50 to 200 |
| CCOc1ccc(NC(=O)C(CCC2CC2)NC(=O)c2ccc(Nc3ccncc3)cc2)cn1 (stereo not shown) [Example 6-80] | < 50 |
| CCCCC(NC(=O)c1[nH]c2c(c1C)C(=O)CC(C)(C)C2)C(=O)NCc1ccc(CN2CCCC2)cc1 (stereo not shown) [Example 18-11] | < 50 |
| CCCCC(NC(=O)c1[nH]c2c(c1C)C(=O)CC(C)(C)C2)C(=O)NCc1ccc(CN(CC)CC)cc1 (stereo not shown) [Example 18-12] | < 50 |
| CCCC[C@@H](CNc1ccc(N2CCN(C)CC2)cc1)NC(=O)c1[nH]c2c(c1C)C(=O)CC(C)(C)C2 [Example 17-2] | ≥ 200 |
| COc1ccc(NC(=O)C(CCC2CC2)NC(=O)c2ccc(Nc3ccncc3)nc2)cn1 (stereo not shown) [Example 6-56] | ≥ 200 |
| CCCCC(NC(=O)c1[nH]c2c(c1C)C(=O)CC(C)(C)C2)C(=O)Nc1ccc(OC2CNC2)nc1 (stereo not shown) [Example 26-1] | 50 to 200 |
| CCCCC(NC(=O)C(c1ccccc1)c1ccccc1)C(=O)Nc1ccc(OC2CCN(C)CC2)nc1 (stereo not shown) [Example 12-1, 2-[(2,2-diphenylacetyl)amino]-N-[6-(1-methylpiperidin-4-yl)oxypyridin-3-yl]hexane amide] | 50 to 200 |
| N#Cc1ccc(NC(=O)C(CCC2CC2)NC(=O)c2ccc(Nc3ccncc3)cc2)cn1 (stereo not shown) [Example 6-82] | < 50 |
| Cc1c(C(=O)N[C@@H](CCC2CC2)C(=O)N[C@@H](C)c2ccccc2)[nH]c2c1C(=O)CC(C)(C)C2 [Example 13-1, N-((S)-4-cyclopropyl-1-oxo-1-(((S)-1-phenylethyl)amino)butan-2-yl)-3,6,6-trimethyl-4-oxo-4,5,6,7-tetrahydro-1H-indole-2-carboxamide] | < 50 |
| CCCCC(NC(=O)c1[nH]c2c(c1C)C(=O)CC(C)(C)C2)C(=O)NCc1ccc(CO)cc1 (stereo not shown) [Example 16, N-[1-[[4-(hydroxymethyl)phenyl]methylamino]-1-oxohexan-2-yl]-3,6,6-trimethyl-4-oxo-5,7-dihydro-1H-indole-2-carboxamide] | ≥ 200 |
| CCCCC(NC(=O)c1[nH]c2c(c1C)C(=O)CC(C)(C)C2)C(=O)Nc1ccc(N2CCCN(C)CC2)cc1 (stereo not shown) [Example 1-110] | 50 to 200 |
| CCCC[C@H](NC(=O)c1[nH]c2c(c1C)C(=O)CC(C)(C)C2)C(=O)NCc1ccc(N2CCNCC2)cc1 [Example 26-8] | < 50 |
| CCCCC(NC(=O)c1[nH]c2c(c1C)C(=O)CC(C)(C)C2)C(=O)NCc1ccc(CN2CCOCC2)cc1 (stereo not shown) [Example 18-5] | ≥ 200 |
| CCCCC(NC(=O)c1[nH]c2c(c1C)C(=O)CC(C)(C)C2)C(=O)NC1CCC(N(C)C)CC1 (stereo not shown) [Example 1-112] | ≥ 200 |
| CCc1ccncc1NC(=O)C(CCC1CC1)NC(=O)c1[nH]c2c(c1C)C(=O)CC(C)(C)C2 (stereo not shown) [Example 6-2] | < 50 |
| COc1ccc(NC(=O)C(CCC2CC2)NC(=O)c2cccc(CCCN(C)C)c2)cn1 (stereo not shown) [Example 6-75] | ≥ 200 |
| CCCC[C@H](NC(=O)c1[nH]c2c(c1CCC)C(=O)CC(C)(C)C2)C(=O)Nc1ccccc1 [Example 6-37] | ≥ 200 |
| CCCCC(NC(=O)c1[nH]c2c(c1C)C(=O)CC(C)(C)C2)C(=O)NCc1ccc(C(=O)OC)cc1 (stereo not shown) [Example 6-21] | ≥ 200 |
| Cc1cc(-n2ccc3cnccc32)ccc1C(=O)NC(CCC1CC1)C(=O)Nc1ccc(C#N)nc1 (stereo not shown) [Example 6-83] | 50 to 200 |

— US20230127046A1, “G9a INHIBITOR” (RIKEN, priority 2019, published 2023)
